According to patent US11477982B2, “2-amino-5-oxyalkyl-pyrimidine derivatives and their use for controlling undesired plant growth” (Bayer CropScience Aktiengesellschaft, priority 2017, dated 2022):

Columns and labels:
Assay type in all cases: in vivo
HORMU: Hordeum murinum = assay: Pre-emergence herbicidal effect; conditions: pre-emergence; dosage 320 g/ha
From the text: (§1) 1. Pre-Emergence Herbicidal Effect and Crop Plant Compatibility
(§2) Seeds of monocotyledonous and dicotyledonous weed plants and crop plants are placed in plastic or wood fiber pots and covered with soil. The compounds of the invention, formulated in the form of wettable powders (WP) or as emulsion concentrates (EC), are then applied onto the surface of the covering soil as aqueous suspension or emulsion with addition of 0.5% additive at a water application rate of 600 l/ha (converted).
(§3) After the treatment, the pots are placed in a greenhouse and kept under good growth conditions for the trial plants. After about 3 weeks, the effect of the preparations is scored visually in comparison with untreated controls as percentages. For example, 100% activity=the plants have died, 0% activity=like control plants.

PHBPU: Ipomoea purpurea = assay: Pre-emergence herbicidal effect; conditions: for Herbicidal efficacy against PHBPU: Table 4a, dosage 20 g of a.i./ha
From the text: as §1, §2, §3

[1] = tested on: MATIN: Matricaria inodora; assay: Pre-emergence herbicidal effect; conditions: pre-emergence; dosage 320 g/ha
From the text: as §1, §2, §3

[2] = tested on: AMARE: Amaranthus retroflexus; assay: Pre-emergence herbicidal effect; conditions: pre-emergence; dosage 320 g/ha
From the text: as §1, §2, §3

VERPE: Veronica persica = assay: Pre-emergence herbicidal effect; conditions: dosage 320 g/ha
From the text: as §1, §2, §3

[3] = tested on: POLCO: Polygonum convolvulus; assay: Pre-emergence herbicidal effect; conditions: for Herbicidal action against POLCO: dosage 320 g/ha; for Herbicidal efficacy against POLCO: Table 4a, dosage 20 g of a.i./ha
From the text: as §1, §2, §3

VIOTR: Viola tricolor = assay: Pre-emergence herbicidal effect; conditions: dosage 320 g/ha
From the text: as §1, §2, §3

[4] = tested on: ECHCG: Echinochloa crus-galli; assay: Pre-emergence herbicidal effect; conditions: Table 4a; pre-emergence; dosage 20 g of a.i./ha
From the text: as §1, §2, §3

SETVI: Setaria viridis = assay: Pre-emergence herbicidal effect; conditions: Table 4a; pre-emergence; dosage 20 g of a.i./ha
From the text: as §1, §2, §3

LOLRI: Lolium rigidum = assay: Pre-emergence herbicidal effect; conditions: Table 4a, dosage 20 g of a.i./ha
From the text: as §1, §2, §3

[5] = tested on: ALOMY: Alopecurus myosuroides; assay: Pre-emergence herbicidal effect; conditions: Table 4a; pre-emergence; dosage 20 g of a.i./ha
From the text: as §1, §2, §3

[6] = tested on: ABUTH: Abutilon theophrasti; assay: Pre-emergence herbicidal effect; conditions: Table 4a, dosage 20 g of a.i./ha
From the text: as §1, §2, §3

[7] = tested on: ECHCG: Echinochloa crus-galli; assay: Post-emergence herbicidal effect; conditions: dosage 320 g/ha
Description: (§4) 2. Post-Emergence Herbicidal Effect and Crop Plant Compatibility
(§5) Seeds of monocotyledonous and dicotyledonous weeds and crop plants are placed in sandy loam in plastic or wood-fiber pots, covered with soil and cultivated in a greenhouse under controlled growth conditions, 2 to 3 weeks after sowing, the test plants are treated at the one-leaf stage. The compounds of the invention, formulated in the form of wettable powders (WP) or as emulsion concentrates (EC), are then sprayed onto the green parts of the plants as aqueous suspension or emulsion with addition of 0.5% additive at a water application rate of 600 l/ha (converted). After the test plants had been kept in the greenhouse under optimum growth conditions for about 3 weeks, the activity of the preparations is rated visually in comparison to untreated controls. For example, 100% activity=the plants have died, 0% activity=like control plants.

[8] = tested on: AMARE: Amaranthus retroflexus; assay: Post-emergence herbicidal effect; conditions: dosage 320 g/ha
Description: as §4, §5

[9] = tested on: ABUTH: Abutilon theophrasti; assay: Post-emergence herbicidal effect; conditions: dosage 320 g/ha
Description: as §4, §5

STEME: Stellaria media = assay: Post-emergence herbicidal effect; conditions: dosage 320 g/ha
Description: as §4, §5

AVEFA: Avena fatua = assay: Pre-emergence herbicidal effect
From the text: as §1, §2, §3

| SMILES | Herbicidal action against MATIN [1] [%] | Herbicidal action against AMARE [2] [%] | Herbicidal action against VERPE (VERPE: Veronica persica) [%] | Herbicidal action against POLCO [3] [%] | Herbicidal action against VIOTR (VIOTR: Viola tricolor) [%] | other results |
| --- | --- | --- | --- | --- | --- | --- |
| Cc1ccc2c(c1)[C@H](Nc1ncc([C@H](C)O)c(N)n1)[C@@H](C)C2 (racemic) [drawing 8, reference compound] |  |  |  |  |  | Herbicidal action against HORMU (HORMU: Hordeum murinum): 20%; Herbicidal action against PHBPU (PHBPU: Ipomoea purpurea; dosage 320 g/ha): 20% |
| Cc1nc(N[C@@H]2CCc3ccccc32)ncc1C(C)O (stereo partly drawn) [Example 1.47] | 100 | 100 | 100 | 100 | 100 |  |
| COc1cccc2c1CCCC2Nc1ncc(C(C)(C)O)c(C)n1 (racemic) [Example 1.44] | 100 | 100 | 100 | 100 | 100 |  |
| CC(C)=CC(C)(O)c1cnc(N[C@H]2c3cc(C)ccc3C[C@@H]2C)nc1 (stereo partly drawn) [Example 1.27] | 100 | 100 | 100 | 100 | 100 |  |
| C=CCCC(C)(O)c1cnc(N[C@H]2c3cc(C)ccc3C[C@@H]2C)nc1 (stereo partly drawn) [Example 1.28] | 100 | 100 | 100 | 100 | 100 |  |
| Cc1ccc2c(c1)[C@H](Nc1ncc(C(C)O)c(C(C)F)n1)[C@@H](C)C2 (stereo partly drawn) [Example 1.19] | 100 | 100 | 100 | 100 | 100 |  |
| Cc1cc2c(s1)CCCC2Nc1ncc(C(C)(C)O)c(C)n1 (stereo not drawn) [drawing 16, reference compound] |  |  |  |  |  | Herbicidal efficacy against ECHCG [4]: 30; Herbicidal efficacy against SETVI (SETVI: Setaria viridis): 80; Herbicidal efficacy against PHBPU (PHBPU: Ipomoea purpurea): 0; Herbicidal efficacy against POLCO [3]: 20; Herbicidal efficacy against LOLRI (LOLRI: Lolium rigidum): 0; Herbicidal efficacy against ALOMY [5]: 30; Herbicidal efficacy against ABUTH [6]: 80 |
| Cc1cc2c(s1)CCCC2Nc1ncc(C(C)O)c(C)n1 (stereo not drawn) [drawing 17, reference compound] |  |  |  |  |  | Herbicidal efficacy against ECHCG [4]: 0; Herbicidal efficacy against SETVI (SETVI: Setaria viridis): 20; Herbicidal efficacy against PHBPU (PHBPU: Ipomoea purpurea): 0; Herbicidal efficacy against POLCO [3]: 20; Herbicidal efficacy against LOLRI (LOLRI: Lolium rigidum): 0; Herbicidal efficacy against ALOMY [5]: 0; Herbicidal efficacy against ABUTH [6]: 0 |
| CC(C)(O)c1cnc(NC2CCOc3ccccc32)nc1 (racemic) [Example 1.9] | 100 | 100 | 100 | 100 | 100 |  |
| Cc1ccc2c(c1)[C@H](Nc1ncc(C(C)O)c(C)n1)CCO2 (stereo partly drawn) [Example 1.49] | 100 | 100 | 100 | 100 | 100 | Herbicidal action against ECHCG [7]: 80%; Herbicidal action against AMARE [8]: 90%; Herbicidal action against ABUTH [9]: 80%; Herbicidal action against STEME (STEME: Stellaria media): 90% |
| Cc1ccc2c(c1)[C@H](Nc1ncc([C@H](C)O)c(N)n1)[C@@H](C)C2 (racemic) [drawing 5, reference compound] |  |  |  |  |  | Herbicidal action against AVEFA (AVEFA: Avena fatua; dosage 80 g/ha): 20%; Herbicidal action against AVEFA (AVEFA: Avena fatua; dosage 320 g/ha): 60% |
